Assay results published in ChEMBL document CHEMBL1201862, “PubChem BioAssay data set” (2004).
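Exposure lasted 48 hours, with cells grown in 96-well plates and compounds tested at five concentrations. GI50 = concentration required for 50% inhibition of growth.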 Active and inactive are the calls of the source. Cut-off read from the data, not from the text of the source: active = GI50 up to about 1.1 µM and inactive = higher.

Key:
Assay in all cases: DTP human tumour cell line panel, 48 h
786-0 = tested on: 786-0
A498 = tested on: A498
A549 = tested on: A549
ACHN = tested on: ACHN
BT-549 = tested on: BT-549
CAKI-1 = tested on: CAKI-1
CCRF-CEM = tested on: CCRF-CEM
COLO 205 = tested on: COLO 205
DU-145 = tested on: DU-145
EKVX = tested on: EKVX
HCC 2998 = tested on: HCC 2998
HCT-116 = tested on: HCT-116
HCT-15 = tested on: HCT-15
HL-60 = tested on: HL-60
HOP-62 = tested on: HOP-62
HOP-92 = tested on: HOP-92
HT-29 = tested on: HT-29
Hs-578T = tested on: Hs-578T
IGROV-1 = tested on: IGROV-1
K562 = tested on: K562
KM12 = tested on: KM12
LOX IMVI = tested on: LOX IMVI
M14 = tested on: M14
MCF7 = tested on: MCF7
MDA-MB-231 = tested on: MDA-MB-231
MDA-MB-435 = tested on: MDA-MB-435
MDA-N = tested on: MDA-N
MOLT-4 = tested on: MOLT-4
Malme-3M = tested on: Malme-3M
NCI-H226 = tested on: NCI-H226
NCI-H23 = tested on: NCI-H23
NCI-H460 = tested on: NCI-H460
NCI-H522 = tested on: NCI-H522
NCI/ADR-RES = tested on: NCI/ADR-RES
OVCAR-3 = tested on: OVCAR-3
OVCAR-4 = tested on: OVCAR-4
OVCAR-8 = tested on: OVCAR-8
PC-3 = tested on: PC-3
RPMI-8226 = tested on: RPMI-8226
RXF 393 = tested on: RXF 393
SF-268 = tested on: SF-268
SF-295 = tested on: SF-295
SF-539 = tested on: SF-539
SK-MEL-28 = tested on: SK-MEL-28
SK-MEL-5 = tested on: SK-MEL-5
SK-OV-3 = tested on: SK-OV-3
SN12C = tested on: SN12C
SNB-19 = tested on: SNB-19
SNB-75 = tested on: SNB-75
SR = tested on: SR
SW-620 = tested on: SW-620
T47D = tested on: T47D
TK-10 = tested on: TK-10
U-251 = tested on: U-251
UACC-257 = tested on: UACC-257
UACC-62 = tested on: UACC-62
UO-31 = tested on: UO-31
OVCAR-5 = tested on: OVCAR-5
SK-MEL-2 = tested on: SK-MEL-2

Cc1nc(C)c(N2CCN([N+](=O)[O-])CC2)c(O)n1
GI50 (786-0): > 100 µM (inactive) | GI50 (A498): > 100 µM (inactive) | GI50 (A549): > 100 µM (inactive) | GI50 (ACHN): > 100 µM (inactive) | GI50 (BT-549): > 100 µM (inactive) | GI50 (CAKI-1): > 100 µM (inactive) | GI50 (CCRF-CEM): > 100 µM (inactive) | GI50 (COLO 205): > 100 µM (inactive) | GI50 (DU-145): > 100 µM (inactive) | GI50 (EKVX): > 100 µM (inactive) | GI50 (HCC 2998): > 100 µM (inactive) | GI50 (HCT-116): > 100 µM (inactive) | GI50 (HCT-15): > 100 µM | GI50 (HL-60): > 100 µM (inactive) | GI50 (HOP-62): > 100 µM (inactive) | GI50 (HOP-92): > 100 µM (inactive) | GI50 (HT-29): > 100 µM (inactive) | GI50 (Hs-578T): > 100 µM (inactive) | GI50 (IGROV-1): > 100 µM (inactive) | GI50 (K562): > 100 µM (inactive) | GI50 (KM12): > 100 µM (inactive) | GI50 (LOX IMVI): > 100 µM (inactive) | GI50 (M14): > 100 µM (inactive) | GI50 (MCF7): > 100 µM (inactive) | GI50 (MDA-MB-231): > 100 µM (inactive) | GI50 (MDA-MB-435): > 100 µM (inactive) | GI50 (MDA-N): > 100 µM (inactive) | GI50 (MOLT-4): > 100 µM (inactive) | GI50 (Malme-3M): > 100 µM (inactive) | GI50 (NCI-H226): > 100 µM (inactive) | GI50 (NCI-H23): > 100 µM (inactive) | GI50 (NCI-H460): > 100 µM (inactive) | GI50 (NCI-H522): > 100 µM (inactive) | GI50 (NCI/ADR-RES): > 100 µM (inactive) | GI50 (OVCAR-3): > 100 µM (inactive) | GI50 (OVCAR-4): > 100 µM (inactive) | GI50 (OVCAR-8): > 100 µM (inactive) | GI50 (PC-3): > 100 µM (inactive) | GI50 (RPMI-8226): > 100 µM (inactive) | GI50 (RXF 393): > 100 µM (inactive) | GI50 (SF-268): > 100 µM (inactive) | GI50 (SF-295): > 100 µM (inactive) | GI50 (SF-539): > 100 µM (inactive) | GI50 (SK-MEL-28): > 100 µM (inactive) | GI50 (SK-MEL-5): > 100 µM (inactive) | GI50 (SK-OV-3): > 100 µM (inactive) | GI50 (SN12C): > 100 µM (inactive) | GI50 (SNB-19): > 100 µM (inactive) | GI50 (SNB-75): < 0.01 µM (active) | GI50 (SR): > 100 µM (inactive) | GI50 (SW-620): > 100 µM (inactive) | GI50 (T47D): > 100 µM (inactive) | GI50 (TK-10): > 100 µM (inactive) | GI50 (U-251): > 100 µM (inactive) | GI50 (UACC-257): > 100 µM (inactive) | GI50 (UACC-62): > 100 µM (inactive) | GI50 (UO-31): > 100 µM (inactive)

O=c1[nH]cnc2c1ncn2[C@@H]1C[C@@H]1CO
GI50 (786-0): > 100 µM (inactive) | GI50 (A498): > 10 µM (inactive) | GI50 (A549): > 100 µM (inactive) | GI50 (ACHN): > 100 µM (inactive) | GI50 (BT-549): > 100 µM (inactive) | GI50 (CAKI-1): > 100 µM (inactive) | GI50 (CCRF-CEM): > 100 µM (inactive) | GI50 (COLO 205): > 100 µM (inactive) | GI50 (DU-145): > 100 µM (inactive) | GI50 (EKVX): > 100 µM (inactive) | GI50 (HCC 2998): > 100 µM (inactive) | GI50 (HCT-116): > 100 µM (inactive) | GI50 (HCT-15): > 100 µM | GI50 (HL-60): > 100 µM (inactive) | GI50 (HOP-62): > 100 µM (inactive) | GI50 (HOP-92): > 100 µM (inactive) | GI50 (HT-29): > 100 µM (inactive) | GI50 (Hs-578T): 6.22 µM (inactive) | GI50 (IGROV-1): > 100 µM (inactive) | GI50 (K562): > 100 µM (inactive) | GI50 (KM12): > 100 µM (inactive) | GI50 (LOX IMVI): > 100 µM (inactive) | GI50 (M14): > 100 µM (inactive) | GI50 (MCF7): > 100 µM (inactive) | GI50 (MDA-MB-231): > 100 µM (inactive) | GI50 (MDA-MB-435): > 100 µM (inactive) | GI50 (MDA-N): > 100 µM (inactive) | GI50 (MOLT-4): > 100 µM (inactive) | GI50 (Malme-3M): > 100 µM (inactive) | GI50 (NCI-H226): > 100 µM (inactive) | GI50 (NCI-H23): > 100 µM (inactive) | GI50 (NCI-H460): > 100 µM (inactive) | GI50 (NCI-H522): > 100 µM (inactive) | GI50 (NCI/ADR-RES): > 100 µM (inactive) | GI50 (OVCAR-4): > 100 µM (inactive) | GI50 (OVCAR-5): > 100 µM (inactive) | GI50 (OVCAR-8): > 100 µM (inactive) | GI50 (PC-3): > 100 µM (inactive) | GI50 (RPMI-8226): > 10 µM (inactive) | GI50 (RXF 393): > 100 µM (inactive) | GI50 (SF-268): > 100 µM (inactive) | GI50 (SF-539): > 100 µM (inactive) | GI50 (SK-MEL-28): > 100 µM (inactive) | GI50 (SK-MEL-2): > 100 µM (inactive) | GI50 (SK-MEL-5): > 100 µM (inactive) | GI50 (SN12C): > 100 µM (inactive) | GI50 (SNB-19): > 100 µM (inactive) | GI50 (SNB-75): > 100 µM (inactive) | GI50 (SR): > 100 µM (inactive) | GI50 (SW-620): > 100 µM (inactive) | GI50 (T47D): > 100 µM (inactive) | GI50 (TK-10): > 100 µM (inactive) | GI50 (U-251): > 100 µM (inactive) | GI50 (UACC-257): > 100 µM (inactive) | GI50 (UACC-62): > 100 µM (inactive) | GI50 (UO-31): > 100 µM (inactive)
